Measurements: ChEMBL document CHEMBL5726595, “Protein kinase inhibitor containing pyrrolopyridazine derivative” (2017)

These molecules were tested against Hepatocyte growth factor receptor (Homo sapiens, UniProt P08581) (assay: Kinase Assay: The inhibitory effect of the compounds of the present invention on the activity of c-Met was confirmed as follows.Specifically, 250 μM G4Y1 peptide, which serves as a substrate for c-Met enzyme (2 ng/μL), and 50 μM ATP were subjected to an enzyme reaction in a reaction buffer (40 mM Tris-HCl (pH 7.5), 20 mM MgCl2, 0.1 mg/mL bovine serum albumin, and 50 μM DTT). The compounds prepared in Examples and comparative compounds were treated at various concentrations and reacted at room temperature for 1 hour, sequentially added with ADP-Glo™ Reagent and the Kinase detection reagent, and reacted at room temperature for 40 minutes and 30 minutes, respectively.).
Chain of Hepatocyte growth factor receptor (P08581 whole entry): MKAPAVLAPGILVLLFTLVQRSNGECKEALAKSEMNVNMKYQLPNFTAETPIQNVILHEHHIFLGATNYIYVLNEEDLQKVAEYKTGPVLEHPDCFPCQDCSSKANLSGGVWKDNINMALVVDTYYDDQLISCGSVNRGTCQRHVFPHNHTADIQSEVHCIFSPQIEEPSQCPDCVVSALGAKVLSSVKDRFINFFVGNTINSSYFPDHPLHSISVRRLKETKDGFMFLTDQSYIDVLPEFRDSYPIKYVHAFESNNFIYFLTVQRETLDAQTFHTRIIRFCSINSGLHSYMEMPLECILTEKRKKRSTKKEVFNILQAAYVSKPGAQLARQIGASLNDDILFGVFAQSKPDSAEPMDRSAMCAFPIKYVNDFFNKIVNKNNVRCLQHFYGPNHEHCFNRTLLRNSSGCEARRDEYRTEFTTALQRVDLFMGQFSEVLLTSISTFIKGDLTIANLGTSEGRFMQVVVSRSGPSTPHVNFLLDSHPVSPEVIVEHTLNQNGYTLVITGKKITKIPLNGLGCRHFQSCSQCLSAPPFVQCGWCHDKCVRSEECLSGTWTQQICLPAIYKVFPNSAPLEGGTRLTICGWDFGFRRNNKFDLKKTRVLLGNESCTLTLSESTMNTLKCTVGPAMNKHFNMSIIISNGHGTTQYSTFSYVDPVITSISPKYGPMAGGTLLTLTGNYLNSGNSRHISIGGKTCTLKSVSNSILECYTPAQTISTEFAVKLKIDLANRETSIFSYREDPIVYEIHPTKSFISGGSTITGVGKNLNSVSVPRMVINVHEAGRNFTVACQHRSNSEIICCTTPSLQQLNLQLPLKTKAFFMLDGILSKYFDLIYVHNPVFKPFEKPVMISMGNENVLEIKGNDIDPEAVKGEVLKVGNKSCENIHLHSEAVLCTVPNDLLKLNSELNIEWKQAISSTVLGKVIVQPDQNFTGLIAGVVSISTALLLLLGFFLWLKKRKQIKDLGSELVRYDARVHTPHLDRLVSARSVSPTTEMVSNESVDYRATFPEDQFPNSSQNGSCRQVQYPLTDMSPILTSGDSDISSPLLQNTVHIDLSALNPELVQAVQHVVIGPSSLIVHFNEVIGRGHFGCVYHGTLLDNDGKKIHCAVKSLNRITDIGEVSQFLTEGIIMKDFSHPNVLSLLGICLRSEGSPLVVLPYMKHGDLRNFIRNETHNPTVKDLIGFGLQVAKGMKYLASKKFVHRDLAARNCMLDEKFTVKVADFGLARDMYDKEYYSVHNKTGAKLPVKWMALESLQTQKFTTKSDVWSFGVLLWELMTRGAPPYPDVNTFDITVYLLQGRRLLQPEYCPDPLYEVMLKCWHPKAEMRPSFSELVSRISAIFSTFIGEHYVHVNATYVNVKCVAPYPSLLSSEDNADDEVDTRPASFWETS
With `N#CCc1cccc(-c2ccn3nccc(Oc4ccc(NC(=O)C5(C(=O)Nc6ccc(F)cc6)CC5)cc4F)c23)c1` the IC50 was under 40 nM. In the case of `CN(C)Cc1ccc(F)c(-c2ccn3nccc(Oc4ccc(NC(=O)C5(C(=O)Nc6ccc(F)cc6)CC5)cc4F)c23)c1`, the IC50 is reported as under 40 nM. `CCNc1cccc(-c2ccn3nccc(Oc4ccc(NC(=O)C5(C(=O)Nc6ccc(F)cc6)CC5)cc4F)c23)c1` was tested, and the IC50 was under 40 nM. `NCc1cccc(-c2ccn3nccc(Oc4ccc(NC(=O)C5(C(=O)Nc6ccc(F)cc6)CC5)cc4F)c23)c1` gave an IC50 of under 40 nM. In the case of `CN(C)Cc1cccc(-c2ccn3nccc(Oc4ccc(NC(=O)C5(C(=O)Nc6ccc(F)cc6)CC5)cc4F)c23)c1`, the IC50 is reported as under 40 nM. Molecule `CNCc1cccc(-c2ccn3nccc(Oc4ccc(NC(=O)C5(C(=O)Nc6ccc(F)cc6)CC5)cc4F)c23)c1` has an IC50 of under 40 nM. Work on `N#Cc1cc(N)cc(-c2ccn3nccc(Oc4ccc(NC(=O)C5(C(=O)Nc6ccc(F)cc6)CC5)cc4F)c23)c1` yielded an IC50 of under 40 nM. Work on `CN(C)Cc1cc(F)cc(-c2ccn3nccc(Oc4ccc(NC(=O)C5(C(=O)Nc6ccc(F)cc6)CC5)cc4F)c23)c1` yielded an IC50 of under 40 nM. For `CCNCc1cccc(-c2ccn3nccc(Oc4ccc(NC(=O)C5(C(=O)Nc6ccc(F)cc6)CC5)cc4F)c23)c1`, the IC50 was under 40 nM. `CN(C)Cc1ccc(Cl)c(-c2ccn3nccc(Oc4ccc(NC(=O)C5(C(=O)Nc6ccc(F)cc6)CC5)cc4F)c23)c1` gave an IC50 of under 40 nM.
